The target in the experiment is T1, aromatase (cytochrome P450 aromatase) (Homo sapiens, UniProt P11511).
T1 construct: Human placentas were used; from tissue; host or cells: human placenta, microsomes (105,000 g pellet)
T1 sequence (P11511 1-503): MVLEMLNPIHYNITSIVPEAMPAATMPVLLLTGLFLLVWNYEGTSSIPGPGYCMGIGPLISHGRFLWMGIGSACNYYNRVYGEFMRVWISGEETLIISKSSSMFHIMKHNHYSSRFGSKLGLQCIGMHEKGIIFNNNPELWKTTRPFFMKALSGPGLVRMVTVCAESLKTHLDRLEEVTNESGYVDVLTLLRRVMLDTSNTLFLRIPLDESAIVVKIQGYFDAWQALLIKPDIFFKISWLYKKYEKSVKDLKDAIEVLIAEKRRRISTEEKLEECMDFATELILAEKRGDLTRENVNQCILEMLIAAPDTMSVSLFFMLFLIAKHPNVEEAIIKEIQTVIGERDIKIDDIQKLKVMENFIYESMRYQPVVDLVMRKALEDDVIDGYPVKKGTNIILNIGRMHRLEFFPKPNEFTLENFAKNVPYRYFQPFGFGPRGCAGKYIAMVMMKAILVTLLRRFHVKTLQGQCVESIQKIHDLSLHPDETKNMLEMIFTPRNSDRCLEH
The experiment can be described thus: Aromatase inhibition in human placental microsomes (tritiated water release from 1-2-(^3H)-androstenedione). Format: biochemical. The note with it: 25 micrograms protein per test, 60 nM androstene-dione substrate, NADPH, pH 7.2, 37° C., 10 minutes, read-out: IC50 (concentration of inhibitor necessary to decrease by 50% the enzymatic activity). Here is the method:
Inhibition dependent on the concentration (measurement of the IC50 =concentration of the inhibitor necessary to reduce the enzymatic activity by 50%). Human placentas were used which one hour or more after birth were washed, perfused with physiological serum (5 liters) via the umbilical vein and then frozen at -40° C.
The placentas were thawed at 4° C., then homogenized (1:3) in a 10 mM phosphate buffer, pH=7.0, containing 100 mM of potassium chloride (KCl), 10 mM of dithiothreitol (DTT), 10 mM of ethylenediaminetetra-aceticacid (EDTA), 40 mM of nicotinamide and 250 mM of sucrose. The homogenates were then subjected to various stages of centrifugation until the "9000 g" supernatant was obtained (corresponding to cytosol and to endoplasmic reticulum). This supernatant was then subjected to an ultracentrifugation stage (90 minutes, 105,000 g) to obtain the microsome deposit. […] The protein concentration of the microsome suspension was determined by the BRADFORD method (BRADFORD, Anal. Biochem., Vol. 72 (1976), p. 248). […]
The enzymatic reaction was then very quickly started by the addition of 10 microliters of reduced nicotinamide adenine dinucleotide phosphate (NADPH) dissolved in water. […] After centrifugation, and for each tube, 100 microliters of supernatant was removed and counted in the presence of scintillating liquid. […]

With `C[C@]12CCC(=O)C(SCF)=C1CC[C@@H]1[C@@H]2CC[C@]2(C)C(=O)CC[C@@H]12` [Example 1, 4-fluoromethylthio-Δ^4-androstene-3,17-dione], the IC50 amounted to 70 nM. For `C[C@]12CCC(=O)C(SCCl)=C1CC[C@@H]1[C@@H]2CC[C@]2(C)C(=O)CC[C@@H]12` [Example 2, 4-Chloromethylthio-Δ^4-androstene-3,17-dione] the value was 75 nM.
